# From a melting point compilation (Tetko et al.; mined from patent text by program, amines drawn as free bases though some values may be those of a salt)
row,Structure (SMILES),melting point [°C]
1,CS(=O)(=O)c1ccc(-c2cnn(C3C4CC5CC(C4)CC3C5)c(=O)c2-c2ccc(F)cc2)cc1 (centres undefined),195 to 197
2,Cc1ccc(C(=O)N(CCCNC(=O)OC(C)(C)C)C(c2nc3snc(C)c3c(=O)n2Cc2ccccc2)C(C)C)cc1 (centres undefined),70 to 71
3,CCOC(=O)CC(=O)C=Cc1ccc(OC)cc1,69
4,CCc1n[nH]c(=O)c2ccc(OC)cc12,230 to 235
5,COP(=O)(Cc1ccc([N+](=O)[O-])c2ccccc12)OC,128 to 129
6,COC(=N)N1CCC(c2nn(-c3ccc(C(F)(F)F)cc3)c3ccccc23)CC1,113 to 115
7,COC(=O)c1nc2n(n1)-c1ccc(Cl)cc1N(c1ccccc1)C2,190 to 194
8,CCOC(=O)C1=CNc2cccnc2S1,194 to 195
9,CCOc1ccc(-c2nc(CCl)cs2)cc1OCC,81.5 to 82.3
10,COC(=O)COc1ccc(C(C)=O)c(C)c1,49 to 50
11,CN(C)C(=O)c1ccc(NC(=O)C(C)(C)C)cc1C(F)(F)F,199 to 200
12,CCCCCCC(=O)N[C@H](CO)C(=O)OCc1ccccc1,62 to 66
13,CCCCn1cc(C(=O)O)c2ccccc21,124 to 126
14,C[C@@H](c1ccccc1)N1C[C@H]2CCOC(=O)[C@H]2C1,86 to 87
15,O=C(Oc1ccc2c(c1Cl)Sc1ccccc1N2)c1ccccc1,203
16,CN1Cc2c(-c3nnc(CCl)o3)ncn2-c2ccccc2C1=O,221 to 222
17,CC(C)NC(=O)C1=C(C(=O)Nc2cc(OC3CCCC3)c(Cl)cc2F)CCCC1,169 to 171
18,NC(=O)N1CCC(c2nn(-c3ccc(C(F)(F)F)cc3)c3cc(F)ccc23)CC1,148 to 150
19,C[C@]1(COc2ccc3nc(N4CCC(=Cc5ccc(OC(F)(F)F)cc5)CC4)ccc3c2)Cn2cc([N+](=O)[O-])nc2O1,194 to 196
20,OC1CSC(Oc2cccnc2-c2cncnc2)C(O)C1O (centres undefined),195
21,CC1(C)NC(=O)N(CC#CI)C1=O,118 to 126
22,CC1=CC(O)C(OC(=O)c2ccc(N)cc2N)C(C)(C)CC1=O (centres undefined),185 to 186
23,COC(=O)C1CC2=C(CO1)C(=O)c1cc3ccccc3c(OC(C)=O)c1C2=O (centres undefined),196 to 198
24,Cc1ccc(N2CCN(CCC3NC(=O)c4ccccc43)CC2)cc1C (centres undefined),167 to 169
25,CS(=O)(=O)c1ccc(Oc2ccc([N+](=O)[O-])cc2C#N)cc1,205 to 206

row,Structure (SMILES),melting point [°C]
1,COC(=O)CCCc1cc2cc(Cl)ccc2n1S(=O)(=O)c1ccc2nc(C)sc2c1,151 to 153
2,COc1cc2c(cc1OCc1ccccc1)CC(C(=O)O)NC2 (racemic),230 to 240
3,CC(C)c1sc(-c2ccccc2)c(-c2ccc(F)cc2)c1CO,140 to 143
4,CCc1nn(C2CN(C(C)C)C2)c2c(=O)[nH]c(-c3cc(S(C)(=O)=O)ccc3OCC(C)C)nc12,206 to 209
5,COc1ccc(CNc2ncc(Cl)cc2C(=O)O)cc1,204 to 206
6,Cc1noc(=O)c2ccc(NC(=O)C(C)(O)CC(C)(C)c3ccccc3)cc12 (centres undefined),173 to 175
7,Cc1nc2ccccc2n(-c2ccc(N(C)C)cc2)c1=O,230 to 231
8,CCCn1ncc2c(=O)[nH]c(-c3cc(S(=O)(=O)Cl)ccc3OCC)nc21,177 to 180
9,NC(=O)c1cc2[nH]c3ccccc3c(=O)n2n1,315 to 325
10,COc1ccc(CS[C@@H]2C[C@@H](CNCc3ccccc3)N(S(C)(=O)=O)C2)cc1,63 to 64
11,COc1ccc2c(c1)c(=O)[nH]c1c2c2ccccc2n1C,250
12,COc1ccc(OCC(O)CN2CCC(Nc3nc4c(C)cccc4n3Cc3nc(C)ccc3O)CC2)cc1 (centres undefined),227
13,COc1ccc(-c2cnn3ccc(-c4ccc(OCCCNC(=O)OC(C)(C)C)c(OC)c4)nc23)cc1OC,131 to 133
14,Nc1nc(NCC(c2ccccc2)c2ccccc2)c2ncn(C3OC(CO)C(O)C3O)c2n1 (centres undefined),134 to 137
15,CC1(C)Oc2ccc([N+](=O)[O-])cc2C(n2ccccc2=O)=C1CNC(=O)C(F)(F)F,189
16,CC(=O)N(C)S(=O)(=O)c1cc(-n2c(=O)cc(C(F)(F)F)n(C)c2=O)ccc1Cl,193 to 195
17,Nc1cc(Oc2ccc(NC(=O)Nc3ccc(Cl)c(C(F)(F)F)c3)cc2)ncn1,197 to 198
18,O=[N+]([O-])c1cc(Cl)c(Cl)cc1NC1C=CCC1 (centres undefined),85 to 86
19,COc1cc(C(C)O)c(O)cc1OCCCN1CCC(c2noc3cc(F)ccc23)CC1 (centres undefined),156 to 158
20,CCCn1c(COC)nc2c(N)nc3ccc(OCCCOC(=O)N4CCOCC4)cc3c21,173 to 174
21,CC(=O)Nc1ccc(OCCOC(=O)CCCNC(=O)c2cc(OCc3ccccc3)ccc2OCc2ccccc2)cc1,141 to 143
22,Cc1oc(-c2ccccc2)nc1COc1nn(Cc2ccc(Oc3ccccc3)cc2)cc1C=O,129 to 130
23,Cc1ccc2occ(CC3=NOS(=O)N3)c2c1 (centres undefined),152 to 153
24,CCCSC1=NSc2ccccc2N1Cc1ccc(-c2ccccc2C(=O)O)cc1,75 to 85
25,c1ccc(Nc2nc3c(s2)CCc2[nH]ncc2-3)nc1,297 to 299

row,Structure (SMILES),melting point [°C]
1,CCCNC(=O)Cc1ccc2ccn(C3CCN(CCc4ccc(F)cc4)CC3)c2c1,131 to 132
2,O=C(NCc1ccc(Cl)cc1)c1cc(Br)c2cccnc2c1O,148 to 151
3,Cc1oc2cc(C3CCNC(=O)C3)ccc2c1C (centres undefined),195 to 197
4,COc1ccc2c(c1)CCC1C2CCC2(C)C(NCCCCCCCCN)CCC12 (centres undefined),47.5 to 49
5,CC(C)C[C@H](NC(=O)OCc1ccccc1)C(=O)N[C@H]1CCOC1=O,130 to 131
6,CNC(=O)C(=O)CCCCCCS(=O)(=O)c1ccc(-c2ccccc2)cc1,134 to 135
7,CCCCC(=O)NC(C(=O)OCC)=C(N)Sc1ccccc1,115
8,CN1CCC(OC(c2cccc(SCCNc3c(N)c(=O)c3=O)c2)c2nc3ccccc3[nH]2)CC1 (centres undefined),161
9,COc1cc(C2=C(c3c[nH]c4ncccc34)C(=O)NC2=O)cc(OC)c1OC,162
10,CCOC(=O)c1cc(=O)c2cc(C(=O)OCC)c(C(=O)OCC)nc2o1,106
11,Nc1c(Cl)cc(C(=O)NCCC23CCCN2CCC3)c2c1CCO2,124
12,Cc1c(SCCCn2c([N+](=O)[O-])cnc2C)ccnc1CSc1ccncc1,140 to 142
13,COC(=O)CCCCCOc1ccc(NC(=O)OCCOC(=O)Nc2ccc(OCCCCCC(=O)OC)cc2)cc1,118 to 120
14,COc1ccc2c(c1)C(CCNC(=O)C(F)(F)F)C1(CC2)Cc2ccccc2C1 (centres undefined),149 to 152
15,Nc1ccc2nc3c(nc2c1)OCC1CCCCN31 (centres undefined),229 to 232
16,N#CCc1nn2c(C(F)(F)F)cc(-c3ccc(F)c(Cl)c3)nc2c1C#N,185
17,Cc1cccc(Oc2c(-c3ccc(S(C)(=O)=O)cc3)oc(C)cc2=O)c1,162
18,Cc1ccc(S(=O)(=O)N2C(C3=NOC(C)N3)CCC2c2ccc(F)cc2)cc1 (centres undefined),68
19,COc1cc2ncc(C#N)c(Nc3cc(C)c(O)c(C)c3)c2cc1OC,234 to 236
20,CC(=Cc1ccc(Oc2ccc(C)nc2)cc1)C(=O)O,211 to 214
21,CCOc1ccccc1N1CCN(C(=O)Nc2nc3ccccc3nc2OCC)CC1,120 to 122
22,CCCCc1ncc(C=C2C(=O)Nc3ccccc32)n1Cc1ccc(C(=O)OCC)cc1,169 to 171
23,O=C(O)c1sccc1SSc1ccsc1C(=O)O,256 to 257
24,COc1ccc(/C=C/C(=O)Nc2ccccc2C(=O)NCc2cn(CC(=O)Nc3ccccc3)nn2)cc1OC,189 to 191
25,Cc1ccc(S(=O)(=O)OCC2Cc3cccc(-c4ccsc4)c3O2)cc1 (centres undefined),90 to 92

row,Structure (SMILES),melting point [°C]
1,O=CCC(c1ccccc1)c1cc(Br)ccc1OCc1ccccc1 (centres undefined),99 to 100
2,CC(C)c1nn(-c2ccc(Cl)cn2)cc1CCCO,93 to 95
3,Cc1nc(-c2ccccc2Cl)n2c1nnc1ccc(N3CCCCC3)cc12,207 to 210
4,CC(C)(C)OC(=O)NCCC[C@H](NC(=O)OC(C)(C)C)C(=O)NCCCC(c1ccc(F)cc1)c1ccc(F)cc1,54 to 59
5,CCCc1c2ccccc2c(O)c2c(=O)cc(C(=O)OCC)oc12,148 to 150
6,CC(C)OC(=O)OCC1(C)COC(=O)OC1,64 to 65
7,CC(C)(C)OC(=O)NCC(O)c1cccs1 (centres undefined),101 to 102
8,Cc1oc(-c2ccccc2)nc1CCOc1ccc(C[C@H](NC(=O)C(F)=Cc2ccccc2)C(=O)O)cc1Br,243 to 245
9,Cc1cc(-c2nc3sc4ccccc4n3c2CC(=O)O)c(C)s1,249 to 250
10,CCN(CC)C(=O)CCC(=O)Oc1cc(-n2c(=O)cc(C(F)(F)F)n(C)c2=O)c(F)cc1Cl,91 to 93
11,CCOC(=NC(=O)c1ccccc1C(F)(F)F)c1ccccc1Cl,64 to 65
12,CCCCCCCCCCCCCCc1ccc(O)c(C(=O)CCCCC)c1,41 to 42
13,CON1C=C2N=NC3=C(N2C1)N(c1ccccc1Cl)CC=C3,190 to 193
14,COC(CCCNC(=O)C=CC(=O)NCCCC(OC)OC)OC,170 to 172
15,O=c1[nH]nc(Br)c2ccccc12,268 to 271
16,CCC1(c2cccs2)NC(=O)NC1=O (centres undefined),173 to 174
17,CC(=CC(C)(O)c1ccc(Cl)cc1Cl)n1cncn1 (centres undefined),101
18,CC(C)(C)CN(CC(O)C(Cc1ccccc1)NC(=O)C(CC(N)=O)NC(=O)NCc1ccccc1)C(=O)NC(C)(C)C (centres undefined),177 to 178
19,CNC(=O)Nc1ccc2c(c1)C(C)(N)c1c-2[nH]c(=O)c2nccn12 (centres undefined),200
20,Cn1c(SCCCN2CCc3ccc(C(=O)c4ccccc4)cc3C2)nnc1-c1ccccc1,146 to 152
21,CSc1c(SC)c(OC(C)=O)c2cc(Cl)ccc2c1OC(C)=O,113 to 114
22,CS(=O)(=O)C(C#N)=Cc1ccc2[nH]ccc2c1,184 to 185
23,Cc1onc(-c2ccccc2)c1C(=O)N[C@@H]1N=C(c2ccccc2)c2ccccc2N(C)C1=O,123 to 126
24,Cc1ccc(O)c2c1C(=O)C(=O)N2Cc1ccccc1,255 to 262
